Experimental findings from PMC9557039 (iScience, 2022) are described below.

This test deals with UGT720-269-1 (Siraitia grosvenorii, UniProt P0DO66). Conditions: 1 mM UDPG, 10 mM MgCl2, 40 °C; crude enzyme in screening assay.
UGT720-269-1, sequence (P0DO66 whole entry): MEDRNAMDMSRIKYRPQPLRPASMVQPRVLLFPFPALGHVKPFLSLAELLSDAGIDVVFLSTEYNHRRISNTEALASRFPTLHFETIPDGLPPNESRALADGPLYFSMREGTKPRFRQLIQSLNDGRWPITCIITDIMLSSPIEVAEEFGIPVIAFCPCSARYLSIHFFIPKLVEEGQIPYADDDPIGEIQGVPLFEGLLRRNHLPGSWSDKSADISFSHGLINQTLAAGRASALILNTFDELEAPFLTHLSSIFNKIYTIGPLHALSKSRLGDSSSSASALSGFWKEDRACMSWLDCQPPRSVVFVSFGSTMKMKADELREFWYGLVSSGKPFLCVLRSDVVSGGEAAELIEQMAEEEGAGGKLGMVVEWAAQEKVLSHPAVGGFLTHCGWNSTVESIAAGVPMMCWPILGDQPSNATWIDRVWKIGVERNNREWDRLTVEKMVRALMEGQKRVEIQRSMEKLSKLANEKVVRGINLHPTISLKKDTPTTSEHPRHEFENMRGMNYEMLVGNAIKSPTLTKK

As for `C[C@H](CC[C@@H](O)C(C)(C)O)[C@H]1CC[C@@]2(C)[C@@H]3CC=C4[C@@H](CC[C@H](O)C4(C)C)[C@]3(C)[C@H](O)C[C@]12C` [mogrol], the HPLC product analysis result was “low catalytic property of UGT720-269-1 in the sequential glycosylation of mogrol to IIE”.
